Assay results published in publication PMC9873234, “Syntheses and Structure–Activity Relationships of N-Phenethyl-Quinazolin-4-yl-Amines as Potent Inhibitors of Cytochrome bd Oxidase in Mycobacterium tuberculosis” (Applied sciences (Basel, Switzerland), 2021).
Read-outs that look alike come from different tables or passages of the source.

How the values were obtained:
Test in all cases: microbe, parasite or virus in culture
[1] = test system: T1, M. bovis BCG; parameters: species or system M. tuberculosis H37Rv or N0145; conditions: Mycobacterium tuberculosis variant bovis BCG, 15 h, read-out: BCG / −Q203
T1 construct: BCG

[2] = test system: T2, M. tuberculosis H37Rv; parameters: species or system M. bovis BCG, M. tuberculosis H37Rv or N0145; conditions: Mycobacterium tuberculosis, 15 h, read-out: Replicating ATP IC50 (µM) H37Rv / −Q203
T2 construct: H37Rv

[3] = test system: T3, M. tuberculosis N0145; parameters: species or system M. bovis BCG, M. tuberculosis H37Rv or N0145
T3 construct: N0145 (clinical isolate)

[4] = test system: T1, M. bovis BCG; parameters: species or system M. tuberculosis H37Rv or N0145; conditions: Mycobacterium tuberculosis variant bovis BCG, 15 h, read-out: BCG / −Q203; remark: listed apart in the source
[5] = test system: T2, M. tuberculosis H37Rv; parameters: ATP depletion in replicating mycobacteria without Q203, BacTiter-Glo luminescence; conditions: Mycobacterium tuberculosis, 15 h, read-out: Replicating ATP IC50 (µM) H37Rv / −Q203
[6] = test system: T3, M. tuberculosis N0145; parameters: species or system M. bovis BCG, M. tuberculosis H37Rv or N0145; conditions: Mycobacterium tuberculosis, N0145, 15 h; read-out: N0145 / –Q203
[7] = Mycobacterium tuberculosis, N0145, 15 h; read-out: N0145 / –Q203

Compound | IC50 [1] [µM] | IC50 [2] [µM] | IC50 [3, 7] [µM] | IC50 [4] [µM] | IC50 [5] [µM] | IC50 [6] [µM] | IC50 ([3]; Mycobacterium tuberculosis, N0145, 15 h, read-out: N0145 / –Q203) [µM]
FC(F)(F)c1ccc(CCNc2ncnc3ccccc23)cc1 [6a, Quinazolin-4-yl{2-[4-(trifluoromethyl)phenyl]ethyl}amine] | > 25 | > 25 | > 25 | – | – | – | –
FC(F)(F)Oc1ccc(CCNc2ncnc3ccccc23)cc1 [7a, Quinazolin-4-yl{2-[4-(trifluoromethoxy)phenyl]ethyl}amine] | > 25 | > 25 | > 25 | – | – | – | –
Clc1ccc(CCNc2ncnc3ccccc23)cc1 [8a] | > 25 | > 25 | > 25 | – | – | – | –
FS(F)(F)(F)(F)c1ccc(CCNc2ncnc3ccccc23)cc1 [9a] | > 25 | > 25 | > 25 | – | – | – | –
Cc1ccc(CCNc2ncnc3ccccc23)cc1 [10a] | > 25 | > 25 | > 25 | – | – | – | –
COc1ccc(CCNc2ncnc3ccccc23)cc1 [11a] | > 25 | > 25 | > 25 | – | – | – | –
CC(C)(C)c1ccc(CCNc2ncnc3ccccc23)cc1 [12a, {2-[4-(tert-Butyl)phenyl]ethyl}quinazolin-4-ylamine] | > 25 | > 25 | > 25 | – | – | – | –
FC(F)(F)Oc1cccc(CCNc2ncnc3ccccc23)c1 [13a] | > 25 | > 25 | > 25 | – | – | – | –
CCOc1cccc(CCNc2ncnc3ccccc23)c1 [14a] | > 25 | > 25 | > 25 | – | – | – | –
FC(F)(F)c1ccccc1CCNc1ncnc2ccccc12 [15a, Quinazolin-4-yl{2-[2-(trifluromethyl)phenyl]ethyl}amine] | > 25 | > 25 | > 25 | – | – | – | –
Fc1ccc2ncnc(NCCc3ccc(OC(F)(F)F)cc3)c2c1 [16a] | – | – | – | > 25 | > 25 | > 25 | –
Cc1ccc2ncnc(NCCc3ccc(OC(F)(F)F)cc3)c2c1 [17a] | – | – | – | > 25 | > 25 | > 25 | –
COc1ccc2ncnc(NCCc3ccc(OC(F)(F)F)cc3)c2c1 [18a] | – | – | – | > 25 | > 25 | > 25 | –
Fc1ccc2c(NCCc3ccc(OC(F)(F)F)cc3)ncnc2c1 [19a, (7-Fluoroquinazolin-4-yl){2-[4-(trifluormethoxy)phenyl]ethyl}amine] | – | – | – | > 25 | > 25 | > 25 | –
FC(F)(F)Oc1ccc(CCNc2ncnc3cc(Cl)ccc23)cc1 [20a] | – | – | – | > 25 | > 25 | > 25 | –
FC(F)(F)Oc1ccc(CCNc2ncnc3cc(Br)ccc23)cc1 [21a] | – | – | – | > 25 | > 25 | > 25 | –
FC(F)(F)Oc1ccc(CCNc2ncnc3cc(C(F)(F)F)ccc23)cc1 [22a] | – | – | – | > 25 | > 25 | > 25 | –
COc1ccc2c(NCCc3ccc(OC(F)(F)F)cc3)ncnc2c1 [23a] | – | – | – | > 25 | > 25 | > 25 | –
Cc1nc(NCCc2ccc(OC(F)(F)F)cc2)c2ccccc2n1 [24a] | – | – | – | 12.2 ± 0.737 | 7.5 ± 1.02 | 8.2 ± 0.654 | –
FC(F)(F)Oc1ccc(CCNc2nc(C3CC3)nc3ccccc23)cc1 [25a] | – | – | – | 8.5 ± 1.53 | 7.6 ± 1.03 | 7.3 ± 1.05 | –
Cc1nc(NCCc2ccc(OC(F)(F)F)cc2)c2ccc(F)cc2n1 [26a] | – | – | – | > 25 | 23.6 ± 7.81 | > 25 | –
COc1nc2ccc(Br)cc2cc1[C@@H](c1ccccc1)[C@@](O)(CCN(C)C)c1cccc2ccccc12 [BDQ] | 0.17 ± 0.019 | 0.06 ± 0.019 | 0.05 ± 0.003 | – | – | – | –
CC(C)=CCC/C(C)=C/CC/C(C)=C/Cc1c(C)[nH]c2ccccc2c1=O [aurachin D] | > 25 | 5.5 ± 1.11 | > 25 | – | – | – | –
FC(F)(F)c1ccc(Oc2ccc(Nc3ncnc4ccccc34)cc2)cc1 [compound 2] | > 25 | > 25 | > 25 | – | – | – | –
c1ccc(CCNc2ncnc3ccccc23)cc1 [compound 3] | > 25 | > 25 | – | – | – | – | > 25
